# Laboratory results as given in patent publication EP0361977A2, “Peptides having T cell suppressor activity” (IMM[…] INSTITUTE, INC., priority 1988, dated 1990).
# Where a SMILES comes first, the peptide text is derived from it. The star is where a group is joined. βNA = c1ccc2cc(N*)ccc2c1; NHcHex = C1CCC(N*)CC1; NHPh = c1ccc(N*)cc1; X1 = c1ccc(NN*)cc1; NHiPr = CC(C)N*; For = O=C*
# Experiments:
# [1] = tested on: CEM cells; assay: Cyclic GMP assay in CEM cells; format: cell-based, human; settings: for T cell suppressor activity: thymopentin-like activity, cyclic GMP assays on CEM cells; for induction of intracellular cyclic GMP (active / inactive peptides): CEM cells, dose-response curves from 1 to 1000 micrograms/ml, Fig. 1, composite of 6 experiments, compared with thymopentin
# From the text: This assay measures the ability of a peptide of this invention to bind to the cell membrane receptor of the intact CEM cell and selectively stimulate production of cyclic GMP, as does human thymopentin.
# The CEM cell line was obtained from the American Type Culture Collection of Rockville, Md. CEM cells were freshly seeded and grown for 3 days with harvesting as described in T. Audhya et al, Arch. Biochem Biophys., 234: 167-177 (1984). The cells were washed 3 times in PBS and resuspended in RPMI 1640 at a concentration of 1.0 x 10⁷ cells/ml and were allowed to equilibrate at 37°C for 30 minutes before the addition of the test peptides (25 ul) and control peptides. The incubation was allowed to proceed in a shaking water bath for 4-5 minutes and was then terminated by addition of 1 ml ice-cold TCA (10 percent).
# The cells in TCA were homogenized and sonicated to release cyclic nucleotide. The suspension was centrifuged at 3000 x g for 20 minutes at 4°C. The resulting precipitate was dissolved in 0.1 N NaOH to determine the protein content. TCA was removed from the supernatant fraction by extracting 4 times with 5 ml of water-saturated ET₂O. After the final extraction, the remaining traces of ether were removed by heating for 10 minutes in a 50°C water bath. After lyophilization the sample was reconstituted in 50 mM acetate buffer (pH 6.2) for radioimmunoassay of cyclic GMP.
# For example, dose-response curves from 1 to 1000 micrograms/ml of peptide, were evaluated for each compound. […] A threshold activity was determined for each peptide tested. This is defined as the lowest concentration of the test peptide which induced an intracellular level of cyclic GMP greater than two standard deviations above the control. The controls had intracellular cyclic GMP values of less than 0.9 picomoles/ml (mean±standard deviation). Test results were considered positive if the level of cyclic GMP was greater than 2 times that determined for the parallel negative control. Active peptides had activity thresholds ranging from […].
# [2] = tested on: MOLT-4 cells; assay: T cell helper activity, MOLT-4 T cell line (intracellular cGMP); format: cell-based, human; settings: thymopentin-like; assay not described for these peptides
# [3] = tested on: helper T cell activity; settings: mice; cited from earlier work
Molecule,T cell suppressor activity [1],induction of intracellular cyclic GMP (active / inactive peptides) [1],T cell helper activity [2],helper T cell activity in vivo [3]
"CCNC(=O)[C@@H](NC(=O)[C@H](CCC(=O)O)NC(=O)[C@@H]1CCCN1C(=O)[C@H](CCCNC(=N)N)NC(C)=O)C(C)C [Acetyl-Arg-Pro-Glu-Val-Ethylamide, reference compound] (Ac-RPEV-NHEt)",do not display T cell suppressor stimulatory activity of thymopentin,,,
"CC(C)[C@H](NC(=O)[C@H](CC(=O)O)NC(=O)[C@H](CCCCN)NC(=O)[C@@H](N)CCCNC(=N)N)C(=O)Nc1ccc2ccccc2c1 [Arg-Lys-Asp-Val-2-Naphthylamide, reference compound] (H-RKDV-βNA)",do not display T cell suppressor stimulatory activity of thymopentin,inactive,,
CC(C)[C@H](NC(=O)[C@H](CC(=O)O)NC(=O)[C@H](CCCCN)NC(=O)[C@@H](N)CCCNC(=N)N)C(=O)Nc1ccccc1 [Arg-Lys-Asp-Val-Anilineamide] (H-RKDV-NHPh),,active,,
CC(C)[C@H](NC(=O)[C@H](CC(=O)O)NC(=O)[C@H](CCCCN)NC(=O)[C@@H](N)CCCNC(=N)N)C(=O)NC1CCCCC1 [Arg-Lys-Asp-Val-Cyclohexylamide] (H-RKDV-NHcHex),,active,,
"CC(C)NC(=O)[C@@H](NC(=O)[C@H](CC(=O)O)NC(=O)[C@H](CCCCN)NC(=O)[C@@H](N)CCCNC(=N)N)C(C)C [Arg-Lys-Asp-Val-Isopropylamide, Arg-Lys-Asp-Val-2-propylamide] (H-RKDV-NHiPr)",display both T cell suppressor and helper activities like thymopentin,,display both T cell suppressor and helper activities like thymopentin,
"CC(C)[C@H](NC(=O)[C@H](CC(=O)O)NC(=O)[C@H](CCCCN)NC(=O)[C@@H](N)CCCNC(=N)N)C(=O)NNc1ccccc1 [Arg-Lys-Asp-Val-Phenylhydrazide, Arg-Lys-Asp-Val-2-Phenylhydrazide] (H-RKDV-X1)",,active,,
CC(C)NC(=O)[C@@H](NC(=O)[C@H](CC(=O)O)NC(=O)[C@@H]1CCCN1C(=O)[C@@H](N)CCCNC(=N)N)C(C)C [Arg-Pro-Asp-Val-Isopropylamide] (H-RPDV-NHiPr),display both T cell suppressor and helper activities like thymopentin,active,display both T cell suppressor and helper activities like thymopentin,
"CNC(=O)[C@@H](NC(=O)[C@H](CC(=O)O)NC(=O)[C@@H]1CCCN1C(=O)[C@H](CCCNC(=N)N)NC=O)C(C)C [Formyl-Arg-Pro-Asp-Val-Methylamide, N-formyl-Arg-Pro-Asp-Val-Methylamide] (For-RPDV-NHMe)",display both T cell suppressor and helper activities like thymopentin,,display both T cell suppressor and helper activities like thymopentin,
Arg-Lys-Asp-Val-Dimethylamide [reference compound],do not display T cell suppressor stimulatory activity of thymopentin,inactive,,
Arg-Lys-Asp-Val-Piperidineamide,,active,,
Arg-Lys-Glu-Val-Tyr [SP-5],,,,stimulates helper T cell activity in vivo in mice
Arg-Pro-Asp-Val-Morpholinoamide [reference compound],do not display T cell suppressor stimulatory activity of thymopentin,,,
